Data published in paper PMC10592443 (Cell chemical biology, 2023).
Residues, ends and D or L forms follow the SMILES beside them. *: point of attachment. Cbz = O=C(OCc1ccccc1)*; CH2F = FC*

Tests used:
recombinant PP5-His6 = target: T1, recombinant PP5-His6 (Homo sapiens, UniProt P53041); experiment: PP5 phosphatase activity and inhibition assay; assay type: biochemical; conditions: phospho-S211-GR peptide substrate
T1 sequence (P53041 1-499): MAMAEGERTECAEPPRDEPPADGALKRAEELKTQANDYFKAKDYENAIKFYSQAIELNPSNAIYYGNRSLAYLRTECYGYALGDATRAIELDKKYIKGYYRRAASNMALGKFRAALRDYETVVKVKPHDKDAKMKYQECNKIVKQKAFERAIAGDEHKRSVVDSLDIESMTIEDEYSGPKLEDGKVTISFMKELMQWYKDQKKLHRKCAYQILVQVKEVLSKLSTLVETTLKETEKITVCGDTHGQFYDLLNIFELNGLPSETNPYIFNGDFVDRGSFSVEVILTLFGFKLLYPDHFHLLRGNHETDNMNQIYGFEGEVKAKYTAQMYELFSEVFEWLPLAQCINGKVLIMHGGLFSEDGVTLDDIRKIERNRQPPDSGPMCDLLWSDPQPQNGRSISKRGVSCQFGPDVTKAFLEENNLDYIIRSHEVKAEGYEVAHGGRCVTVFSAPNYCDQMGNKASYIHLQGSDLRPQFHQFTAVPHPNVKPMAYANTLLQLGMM

786-O cells [1] = experiment: Cell viability / proliferation; assay type: cell-based, Human; conditions: varying doses, 48hrs
786-O cells [2] = experiment: Induction of apoptosis by immunoblotting of apoptotic markers; assay type: cell-based, Human
PP5 = conditions: ref [52]-[54]; cited from earlier work
PP1 = conditions: ref [52]-[54]; cited from earlier work
PP5-FLAG = target: T2, PP5-FLAG (Homo sapiens, UniProt P53041); experiment: Biotin-P5 and biotin-P13 streptavidin pulldown from HEK293 lysate; assay type: binding; conditions: for binding to PP5-FLAG (co-pulldown): HEK293 lysate, 0.01-10μM biotinylated compound
T2 sequence (P53041 1-499): T1 sequence (P53041 1-499)

[3] = target: T3, PP5-FLAG active site point mutants (Homo sapiens, UniProt P53041, R400A); experiment: Biotin-P13 streptavidin pulldown of PP5 active site point mutants; assay type: binding; conditions: R400A mutant
T3 sequence (P53041 2-499 R400A): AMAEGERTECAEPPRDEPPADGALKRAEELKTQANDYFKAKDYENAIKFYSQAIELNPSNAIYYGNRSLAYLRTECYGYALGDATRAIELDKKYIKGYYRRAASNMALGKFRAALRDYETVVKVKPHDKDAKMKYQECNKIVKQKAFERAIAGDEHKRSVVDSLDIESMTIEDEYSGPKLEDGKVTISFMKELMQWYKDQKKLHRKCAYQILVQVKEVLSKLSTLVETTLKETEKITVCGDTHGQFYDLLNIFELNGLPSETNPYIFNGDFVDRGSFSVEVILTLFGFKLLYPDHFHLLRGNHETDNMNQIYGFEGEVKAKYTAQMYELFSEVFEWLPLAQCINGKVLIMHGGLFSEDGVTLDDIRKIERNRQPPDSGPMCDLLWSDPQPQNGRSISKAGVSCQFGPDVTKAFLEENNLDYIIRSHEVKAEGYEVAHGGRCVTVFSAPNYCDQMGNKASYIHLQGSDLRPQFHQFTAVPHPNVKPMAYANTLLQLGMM

[4] = tested on: PP5-FLAG active site point mutants; experiment: as above; assay type: binding, Human
PP2A = experiment: Biotinylated compound pulldown from 786-O lysate, co-pulldown of PP2A; assay type: binding, Human; conditions: 1μM
VHL-null ccRCC cells = experiment: Propidium iodide staining, cell death by flow cytometry; assay type: cell-based, Human; conditions: 30 or 40μM, A498 and 786-O versus Caki-1 and Caki-2; dose dependent
HEK293 cells = experiment: Hsp90 inhibition time course, protein levels by immunoblot; assay type: cell-based, Human; conditions: 2μM
786-O cells [5] = experiment: Phosphorylation of S194-FADD by western blot; assay type: cell-based, Human; conditions: indicated amounts, 24hrs
A498 cells = experiment: Phosphorylation of S194-FADD by western blot; assay type: cell-based, Human; conditions: indicated amounts, 24hrs
[6] = tested on: VHL-null ccRCC cell lines; conditions: ref [2]; cited from earlier work

SMILES: Cc1ccc(NS(=O)(=O)c2c(C)noc2C)cc1C [Compound P13, (3,5-Dimethyl-4-isoxazolylsulfonyl)(3,4-xylyl)amine]
- mode of PP5 inhibition (enzyme kinetics, Lineweaver-Burk plot) (recombinant PP5-His6): competitive inhibitors
- proliferation of 786-O cells (MTT) (786-O cells [1]): significantly inhibited the proliferation
- cleavage of apoptotic markers (immunoblot) (786-O cells [2]; 10μM, 24hrs): cleavage of the apoptotic markers caspase 3 and 8 and PARP

SMILES: COC(=O)c1cccc(NS(=O)(=O)c2c(C)noc2C)c1 [Compound P5, Methyl m-(3,5-dimethyl-4-isoxazolylsulfonylamino)benzoate]
- mode of PP5 inhibition (enzyme kinetics, Lineweaver-Burk plot) (recombinant PP5-His6): competitive inhibitors
- proliferation of 786-O cells (MTT) (786-O cells [1]): significantly inhibited the proliferation
- cleavage of apoptotic markers (immunoblot) (786-O cells [2]; 10μM, 24hrs): cleavage of the apoptotic markers caspase 3 and 8 and PARP

SMILES: CN1CCN(C(=O)C2C(C(=O)O)[C@H]3CC[C@@H]2O3)CC1 (some centres unmarked) [LB-100]
- inhibition of PP5 (PP5): inhibit PP5 and PP1
- inhibition of PP1 (PP1): inhibit PP5 and PP1

SMILES: CCCCN(c1ccc(Oc2ccccc2)cc1)S(=O)(=O)c1c(C)noc1C [Compound P058, N-Butyl(3,5-dimethyl-4-isoxazolylsulfonyl)(p-phenoxyphenyl)amine]
- induction of apoptosis (cleaved PARP, cleaved caspase 8) (786-O cells [2]; 10μM, 24hrs): ability to induce apoptosis

SMILES: COC(=O)C[C@H](NC(=O)[C@H](C)NC(=O)[C@@H](NC(=O)OCc1ccccc1)C(C)C)C(=O)CF [z-VAD-fmk, reference compound] (Cbz-Val-Ala-Asp(OMe)-CH2F)
- effect on IC261-induced extrinsic apoptosis (786-O cells [2]; 10μM for 1hr, then IC261 for 16hrs): reversed this effect

SMILES: Cc1ccc(N(CCCNC(=O)CCC[C@@H]2SC[C@@H]3NC(=O)N[C@@H]32)S(=O)(=O)c2c(C)noc2C)cc1C [biotin-P13, 4-[(3aS,4S,6aR)-2-Oxo-hexahydro-1H-thieno[3,4-d]imidazol-4-yl]-N-(3-[N-(3,4-dimethylphenyl)3,5-dimethyl-1,2-oxazole-4-sulfonamido]propyl}butanamide]
- binding to PP5-FLAG relative to biotin-P5 (PP5-FLAG; 10μM): bound more
- binding to PP5-FLAG (co-pulldown) (PP5-FLAG): binds
- binding of PP5 mutant to biotinylated compound compared to WT PP5 [3]: reduced binding
- binding of PP5 mutants to biotinylated compound ([4]; H304Q, M309C and W386F mutants): unable to bind
- binding of PP5 mutants to biotinylated compound compared to WT PP5 ([4]; R275A and Y451F mutants): increased binding
- binding to PP2A (co-pulldown) (PP2A): did not bind to PP2A

SMILES: Cc1noc(C)c1S(=O)(=O)Nc1cccc(C(=O)N2CCN(C(=O)CCC[C@@H]3SC[C@@H]4NC(=O)N[C@@H]43)CC2)c1 [biotin-P5, N-[3-(4-(4-[(3aS,4S,6aR)-2-Oxo-hexahydro-1H-thieno[3,4-d]imidazol-4-yl]butanoyl)piperazine-1-carbonyl)phenyl]-3,5-dimethyl-1,2-oxazole-4-sulfonamide]
- binding to PP5-FLAG (co-pulldown) (PP5-FLAG): binds
- binding to PP2A (co-pulldown) (PP2A): did not bind to PP2A

SMILES: Cc1noc(C)c1S(=O)(=O)Nc1ccc(Cc2ccccc2)cc1 [Compound P053, (3,5-Dimethyl-4-isoxazolylsulfonyl)(p-benzylphenyl)amine]
- cleavage of caspase 3 and PARP (786-O cells [2]; 10μM, 24hrs): increased cleavage of the executioner caspase 3
- cleavage of caspase 8 and caspase 9 (extrinsic versus intrinsic apoptosis) (786-O cells [2]; 10μM, 24hrs): cleavage of caspase 8 but not caspase 9
- induction of apoptosis (cleaved PARP, cleaved caspase 8) (786-O cells [2]; 10μM, 24hrs): ability to induce apoptosis
- cell death (PI stained cells) (VHL-null ccRCC cells): selectively caused cell death

SMILES: Cc1noc(C)c1S(=O)(=O)N(CCCCl)c1ccc(Oc2ccccc2)cc1 [Compound P059, (3-Chloropropyl)(3,5-dimethyl-4-isoxazolylsulfonyl)(p-phenoxyphenyl)amine]
- induction of apoptosis (cleaved PARP, cleaved caspase 8) (786-O cells [2]; 10μM, 24hrs): ability to induce apoptosis

SMILES: CC1(C)CC(=O)c2c(C(F)(F)F)nn(-c3ccc(C(N)=O)c(N[C@H]4CC[C@H](O)CC4)c3)c2C1 [SNX-2112]
- RIPK1 protein levels (HEK293 cells; 16 hr): decreased RIPK1 protein levels
- FADD protein levels (HEK293 cells; throughout the time course): did not observe a decrease in FADD levels
- Hsp90 clients Tsc2, Akt and phos-Ser473-Akt protein levels (HEK293 cells; time course): destabilized and degraded

SMILES: Cc1noc(C)c1S(=O)(=O)N(CCCC#N)c1ccc(Oc2ccccc2)cc1 [Compound P075, 4-[(3,5-Dimethyl-4-isoxazolylsulfonyl)(p-phenoxyphenyl)amino]butyronitrile]
- induction of apoptosis (cleaved PARP, cleaved caspase 8) (786-O cells [2]; 10μM, 24hrs): ability to induce apoptosis

SMILES: COc1cc(OC)c(C=C2C(O)=Nc3ccccc32)c(OC)c1 [IC261]
- induction of extrinsic apoptosis (apoptotic markers) (786-O cells [2]; indicated amounts, 16hrs): induced extrinsic apoptosis in a dose-dependent manner
- S194-FADD phosphorylation (786-O cells [5]): increase in S194-FADD phosphorylation
- S194-FADD phosphorylation (A498 cells): increase in S194-FADD phosphorylation
- PP5 activity [6]: decreased PP5 activity
- apoptosis [6]: induced apoptosis
